The record followed here is ChEMBL document CHEMBL3608203, “Benzylated and prenylated flavonoids from the root barks of Cudrania tricuspidata with pancreatic lipase inhibitory activity” (Bioorg Med Chem Lett, 2015).

The target of assay [1] is T1, Pancreatic triacylglycerol lipase (Sus scrofa, UniProt P00591).
T1 sequence (P00591 whole entry): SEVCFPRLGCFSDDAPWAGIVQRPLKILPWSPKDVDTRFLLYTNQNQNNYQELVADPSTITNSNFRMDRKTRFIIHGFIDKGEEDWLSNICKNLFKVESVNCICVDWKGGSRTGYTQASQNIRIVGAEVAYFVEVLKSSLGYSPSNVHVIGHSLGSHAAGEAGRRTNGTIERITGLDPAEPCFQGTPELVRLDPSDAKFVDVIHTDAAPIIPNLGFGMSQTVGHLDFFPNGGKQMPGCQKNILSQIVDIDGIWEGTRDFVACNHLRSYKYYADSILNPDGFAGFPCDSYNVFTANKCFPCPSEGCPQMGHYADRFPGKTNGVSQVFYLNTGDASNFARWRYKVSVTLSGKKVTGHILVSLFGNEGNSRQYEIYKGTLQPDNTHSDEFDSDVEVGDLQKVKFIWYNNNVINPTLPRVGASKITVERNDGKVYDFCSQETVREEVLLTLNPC
As to the kind of experiment: Inhibition of porcine pancreatic lipase pre-incubated for 15 mins before p-nitrophenylbutyrate substrate addition by microplate reader based method.

In assay [2] the target is T2, Pancreatic triacylglycerol lipase (Sus scrofa) (UniProt P00591).
T2 sequence (whole entry): T1 sequence (P00591 whole entry)
As to the kind of experiment: Inhibition of porcine pancreatic lipase at 100 ug/ml pre-incubated for 15 mins before p-nitrophenylbutyrate substrate addition by microplate reader based method.

The target in assay [3] is T2, Pancreatic triacylglycerol lipase (Sus scrofa). Put plainly: Mixed type inhibition of porcine pancreatic lipase pre-incubated for 15 mins before p-nitrophenylbutyrate substrate addition by Lineweaver-Burk plot method.

Activity calls are given as the source filed them. No cut-off for these calls is given here. Some results are limits rather than exact numbers.

As a reminder, the IC50 is the concentration needed to halve the response being measured. A higher IC50 goes with a need for much substance. As usually defined, the inhibition is the percentage by which the read-out fell short of the control. In assay [1], `CC(C)=CCc1c(O)c(Cc2ccc(O)cc2)c(O)c2c1O[C@H](c1ccc(O)cc1)CC2=O` yielded a 50% inhibitory concentration (IC50) of 54.8 µM. Besides, the inhibition in assay [2] came out at 70.1%.

For `CC(C)(O)CCc1c(O)cc(O)c2c1O[C@@H](c1cc3c(cc1O)OC(C)(C)C=C3)CC2=O`, the IC50 in assay [1] turned out to be 84.6 µM. In addition, the inhibition in assay [2] is 52%.

Turning to `O=C1c2c(O)cc(O)cc2O[C@H](c2ccc(O)cc2)[C@H]1O` [DIHYDROKAEMPFEROL], the IC50 in assay [1] was more than 100 µM. In assay [2], this compound returned an inhibition of 10.8%.

In the case of `CC(C)=CCc1c(O)cc(O)c2c1OC(c1ccc(O)cc1)CC2=O` (configuration not stated) [SOPHORAFLAVANONE B], inhibition in assay [1] was half-maximal at 76.9 µM (IC50). This compound had an inhibition in assay [2] of 55.5%.

Regarding `O=c1c(-c2ccc(O)cc2)coc2cc(O)cc(O)c12` [GENISTEIN], in assay [1], the half-maximal inhibitory concentration (IC50) was more than 100 µM. For the same compound, in assay [2], the inhibition came out at 3.2%.

For the compound `CC1(C)C=Cc2c(cc3occc(=O)c3c2O)O1`, the 50% inhibitory concentration (IC50) in assay [1] is more than 100 µM. Moreover, in assay [2], the inhibition is 27.5%.

In turn, `CC(C)=CCc1c(O)cc2occ(-c3ccc(O)cc3)c(=O)c2c1O` [WIGHTEONE] had an IC50 in assay [1] of more than 100 µM. Further, the inhibition in assay [2] worked out at 49.6%.

`O=c1c(O)c(-c2ccc(O)cc2)oc2cc(O)cc(O)c12` [KAEMPFEROL] had an IC50 in assay [1] of more than 100 µM. In assay [2], this compound had an inhibition of 37%.

In assay [1], `O=c1c(O)c(-c2ccc(O)cc2O)oc2cc(O)cc(O)c12` [MORIN] returned an IC50 of more than 100 µM. The inhibition in assay [2] was determined as 26.3%.

As to `O=C1C[C@@H](c2ccc(O)cc2)Oc2cc(O)cc(O)c21` [NARINGENIN], the IC50 in assay [1] was more than 100 µM. Also, in assay [2], the inhibition came to 25.2%.

`CC(C)=CCc1c(O)cc2c(c1O)C(=O)C[C@@H](c1cc3c(cc1O)OC(C)(C)C=C3)O2` [CUDRAFLAVANONE A] gave an IC50 in assay [1] of 6.5 µM. In assay [2], this compound registered an inhibition of 81.4%. In assay [3], the inhibition entry was “Active”.

As to `COc1ccc(-c2coc3cc(O)cc(O)c3c2=O)cc1` [BIOCHANIN], the IC50 in assay [1] was more than 100 µM. For the same compound, the inhibition in assay [2] came out at 6.1%.

As for `O=C1c2c(cc(O)c(O)c2O)O[C@H](c2ccc(O)cc2)[C@H]1O`, in assay [1], the half-maximal inhibitory concentration (IC50) was more than 100 µM. In assay [2], this compound gave an inhibition of 40.1%.
